Drawing on patent publication US20250032430A1, “USES OF RHODOQUINONE FOR THE TREATMENT OF DISEASE” (Whitehead Institute for Biomedical Research, priority 2021, published 2025), this text covers MT-DNA copy number for 1 substance.

In this assay the test system is MT-DNA copy number. The experiment in a line: MT-DNA quantification. The assay is classed as cell-based, human. To be noted: SDHA and SDHB knockout cells. As to the method: MT-DNA Quantification: Cells were pelleted, washed 1× in PBS, and then lysed in buffer (25 mM NaOH, 0.2 mM EDTA) for 15 minutes at 95° C. Lysis was neutralized with buffer (40 mM Tris-HCl) and centrifuged at 16,000×g for 10 minutes at 4° C. Supernatant containing MT-DNA was quantified on a CFX96 Real-Time System Thermal Cycler (Bio Rad). Primers amplifying the MT-DNA marker D-Loop (Forward Primer-[…] (SEQ ID NO: 5) Reverse Primer—[…]) (SEQ ID NO: 6) and the nuclear DNA marker B-Globin (Forward Primer-[…] (SEQ ID NO: 7) Reverse Primer—[…]) (SEQ ID NO: 8) were used and the relative MT-DNA to nuclear DNA was quantified in each sample [4].

As to antimycin, the MT-DNA copy number result is reported as “did not alter”.
